Assay results as given in patent US20230167073A1 (Teijin Pharma Limited, priority 2020, published 2023).

biological target: T1, Human TRPC6 (Homo sapiens, UniProt Q9Y210); assay: Evaluation of TRPC6 channel inhibitory activity (1), FLIPR Calcium 5 Assay Kit, OAG stimulation (Compound Nos. 1-1293); assay type: cell-based; conditions: Human TRPC6 stably-expressing cells, OAG 30 μM, FLIPR Calcium 5 Assay Kit; read-out: Inhibitory activity (pIC50 class) (converted)
T1 construct: expressed in transfected cells
T1 sequence (Q9Y210 1-931): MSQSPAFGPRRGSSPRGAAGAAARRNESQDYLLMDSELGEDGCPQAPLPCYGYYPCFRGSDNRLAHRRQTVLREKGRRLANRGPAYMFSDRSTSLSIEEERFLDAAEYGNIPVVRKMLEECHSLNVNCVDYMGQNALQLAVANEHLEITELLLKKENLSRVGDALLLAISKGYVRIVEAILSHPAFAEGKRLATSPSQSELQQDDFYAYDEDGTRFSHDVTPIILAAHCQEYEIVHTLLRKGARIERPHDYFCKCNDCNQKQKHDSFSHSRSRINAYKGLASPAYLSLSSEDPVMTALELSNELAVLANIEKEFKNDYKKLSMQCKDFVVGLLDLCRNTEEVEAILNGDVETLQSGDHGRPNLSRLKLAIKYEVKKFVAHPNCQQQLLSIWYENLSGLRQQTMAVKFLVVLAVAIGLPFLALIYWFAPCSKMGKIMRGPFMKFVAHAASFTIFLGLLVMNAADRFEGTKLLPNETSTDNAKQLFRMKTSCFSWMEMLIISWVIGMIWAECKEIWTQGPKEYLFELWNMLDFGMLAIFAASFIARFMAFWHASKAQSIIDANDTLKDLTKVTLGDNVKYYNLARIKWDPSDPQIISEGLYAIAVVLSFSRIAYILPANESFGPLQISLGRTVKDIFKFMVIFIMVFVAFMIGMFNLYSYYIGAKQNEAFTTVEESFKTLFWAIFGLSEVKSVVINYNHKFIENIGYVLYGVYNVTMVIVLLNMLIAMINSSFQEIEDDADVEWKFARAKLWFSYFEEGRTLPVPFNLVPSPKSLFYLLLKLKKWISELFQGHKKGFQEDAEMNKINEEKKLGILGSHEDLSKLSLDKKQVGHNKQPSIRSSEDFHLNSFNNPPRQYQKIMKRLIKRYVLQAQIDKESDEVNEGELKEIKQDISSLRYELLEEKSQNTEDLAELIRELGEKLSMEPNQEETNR
Outline: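 Cells stably expressing human TRPC6, plated 24 h before, were loaded 30 min with Calcium 5 dye plus probenecid in HEPES-HBSS. Compound was added 20 min before OAG (30 μM final) and fluorescence tracked on FLIPR. Inhibition normalised to no-compound and no-compound/no-OAG wells; pIC50 from four-parameter fit, reported as +/++/+++ categories.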

| Structure (SMILES) | IC50 |
| --- | --- |
| Cn1nc(-c2ccccc2)cc1Oc1cc(C#N)ccc1-n1cc(N2CCNCC2=O)cn1 [Compound 217, 3-(2-methyl-5-phenylpyrazol-3-yl)oxy-4-[4-(2-oxopiperazin-1-yl)pyrazol-1-yl]benzonitrile] | > 1000 nM |
| Cc1cc(Oc2cc(C#N)ccc2-c2ccc(CN)n3cnnc23)cc(N2CCOCC2)n1 [compound 590, 4-[5-(aminomethyl)-[1,2,4]triazolo[4,3-a]pyridin-8-yl]-3-(2-methyl-6-morpholin-4-ylpyridin-4-yl)oxybenzonitrile] | > 1000 nM |
| Cc1nc(OCC(F)(F)F)cc(Oc2cc(C#N)ccc2-c2ncc(CCN)cn2)n1 [compound 884, 4-[5-(2-aminoethyl)pyrimidin-2-yl]-3-[2-methyl-6-(2,2,2-trifluoroethoxy)pyrimidin-4-yl]oxybenzonitrile] | 10 to 1000 nM |
| N#Cc1ccc(-c2ccc(CCN)nc2)c(Oc2cc(N3CCOCC3)nc(C(F)(F)F)n2)c1 [Compound 147, 4-[6-(2-aminoethyl)pyridin-3-yl]-3-[6-morpholin-4-yl-2-(trifluoromethyl)pyrimidin-4-yl]oxybenzonitrile] | 10 to 1000 nM |
| Cn1nc(-c2ccccc2)cc1Oc1nc(Cl)ccc1-c1ccc(CN)cn1 [compound 1293, [6-[6-chloro-2-(2-methyl-5-phenylpyrazol-3-yl)oxypyridin-3-yl]pyridin-3-yl]methanamine] | 10 to 1000 nM |
| Cc1nc(Oc2cc(C#N)ccc2-c2ccc3c(c2)CNCC3)cc(N2CCOCC2)n1 [Compound 95, 3-(2-methyl-6-morpholin-4-ylpyrimidin-4-yl)oxy-4-(1,2,3,4-tetrahydroisoquinolin-7-yl)benzonitrile] | > 1000 nM |
| Cn1nc(-c2ccccn2)cc1Oc1cc(C#N)ccc1-c1ccc(CC(C)(C)N)cn1 [compound 338, 4-[5-(2-amino-2-methylpropyl)pyridin-2-yl]-3-(2-methyl-5-pyridin-2-ylpyrazol-3-yl)oxybenzonitrile] | < 10 nM |
| Cc1cc(Oc2cc(C#N)ccc2-c2ncc(CCN)cn2)cc(-c2cnccn2)n1 [compound 597, 4-[5-(2-aminoethyl)pyrimidin-2-yl]-3-(2-methyl-6-pyrazin-2-ylpyridin-4-yl)oxybenzonitrile] | 10 to 1000 nM |
| CCN(C)c1cc(Oc2cc(C#N)ccc2-c2ncc(CCN)cn2)nc(C)n1 [compound 854, 4-[5-(2-aminoethyl)pyrimidin-2-yl]-3-[6-[ethyl(methyl)amino]-2-methylpyrimidin-4-yl]oxybenzonitrile] | < 10 nM |
| CCCNc1cc(Oc2cc(C#N)ccc2-c2ncc(CN)cn2)nc(C)n1 [compound 632, 4-[5-(aminomethyl)pyrimidin-2-yl]-3-[2-methyl-6-(propylamino)pyrimidin-4-yl]oxybenzonitrile] | 10 to 1000 nM |
| Cc1nc(Oc2cc(C#N)ccc2-n2cnc(C(O)CN)c2)cc(-c2ccccc2)n1 (stereo not shown) [Compound 200, 4-[4-(2-amino-1-hydroxyethyl)imidazol-1-yl]-3-(2-methyl-6-phenylpyrimidin-4-yl)oxybenzonitrile] | > 1000 nM |
| Cc1nc(Oc2cc(C#N)ccc2-n2cc([C@H](O)CN)cn2)cc(-c2ccccc2)n1 [Compound 171, 4-[4-[(1S)-2-amino-1-hydroxyethyl]pyrazol-1-yl]-3-(2-methyl-6-phenylpyrimidin-4-yl)oxybenzonitrile] | < 10 nM |
| Cn1nc(-c2nccs2)cc1Oc1cc(C#N)ccc1-c1ccc(CCN)cn1 [compound 390, 4-[5-(2-aminoethyl)pyridin-2-yl]-3-[2-methyl-5-(1,3-thiazol-2-yl)pyrazol-3-yl]oxybenzonitrile] | < 10 nM |
| Cn1nc(-c2ccc(F)cc2)cc1Oc1cc(C#N)ccc1-c1ccc(CCN)cc1 [Compound 165, 4-[4-(2-aminoethyl)phenyl]-3-[5-(4-fluorophenyl)-2-methylpyrazol-3-yl]oxybenzonitrile] | 10 to 1000 nM |
| Cc1cc(Oc2cc(C#N)ccc2-c2ccc(OCCN)cn2)n(C)n1 [compound 349, 4-[5-(2-aminoethoxy)pyridin-2-yl]-3-(2,5-dimethylpyrazol-3-yl)oxybenzonitrile] | > 1000 nM |
| N#Cc1ccc(-c2ncc(CCN)cn2)c(Sc2cnnc(N3CCCC3)c2)c1 [compound 1259, 4-[5-(2-aminoethyl)pyrimidin-2-yl]-3-(6-pyrrolidin-1-ylpyridazin-4-yl)sulfanylbenzonitrile] | < 10 nM |

| Structure (SMILES) | IC50 |
| --- | --- |
| Cn1nc(N2CCCC2)cc1Oc1cc(C#N)ccc1-c1ccc(CCN)cn1 [compound 542, 4-[5-(2-aminoethyl)pyridin-2-yl]-3-(2-methyl-5-pyrrolidin-1-ylpyrazol-3-yl)oxybenzonitrile] | < 10 nM |
| Cn1nc(-c2ccccc2O)cc1Oc1cc(C#N)ccc1-c1ccc(C(O)CN)cn1 (stereo not shown) [compound 321, 4-[5-(2-amino-1-hydroxyethyl)pyridin-2-yl]-3-[5-(2-hydroxyphenyl)-2-methylpyrazol-3-yl]oxybenzonitrile] | < 10 nM |
| Cn1nc(C2CC2)cc1Oc1cc(C#N)ccc1-n1ncc2c1CCNC2 [compound 777, 3-(5-cyclopropyl-2-methylpyrazol-3-yl)oxy-4-(4,5,6,7-tetrahydropyrazolo[4,3-c]pyridin-1-yl)benzonitrile] | > 1000 nM |
| Cn1nc(C2CC2)cc1Oc1cc(C#N)ccc1-c1cc(CN)cn2ccnc12 [compound 736, 4-[6-(aminomethyl)imidazo[1,2-a]pyridin-8-yl]-3-(5-cyclopropyl-2-methylpyrazol-3-yl)oxybenzonitrile] | 10 to 1000 nM |
| Cc1cc(Oc2cc(C#N)ccc2-c2ncc([C@H](O)CN)cn2)cc(N2C[C@@H]3C[C@H]2CO3)n1 [compound 528, 4-[5-[(1S)-2-amino-1-hydroxyethyl]pyrimidin-2-yl]-3-[2-methyl-6-[(1S,4S)-2-oxa-5-azabicyclo[2.2.1]heptan-5-yl]pyridin-4-yl]oxybenzonitrile] | 10 to 1000 nM |
| Cc1nc(OCC2(C)CC2)cc(Oc2cc(C#N)ccc2-c2ccc(CCN)cc2)n1 [Compound 49, 4-[4-(2-aminoethyl)phenyl]-3-[2-methyl-6-[(1-methylcyclopropyl)methoxy]pyrimidin-4-yl]oxybenzonitrile] | 10 to 1000 nM |
| N#Cc1ccc(-c2ncc(CCN)cn2)c([S+]([O-])c2cnnc(-c3ccccc3)c2)c1 (stereo not shown) [compound 1275, 4-[5-(2-aminoethyl)pyrimidin-2-yl]-3-(6-phenylpyridazin-4-yl)sulfinylbenzonitrile] | > 1000 nM |
| N#Cc1ccc(-c2ncc(CN)cn2)c(Oc2cc(N3CCCC3)ncc2C#N)c1 [compound 740, 4-[2-[5-(aminomethyl)pyrimidin-2-yl]-5-cyanophenoxy]-6-pyrrolidin-1-ylpyridine-3-carbonitrile] | > 1000 nM |
| Cc1nc(Oc2cc(C#N)ccc2-c2ncc([C@H](O)CN)cn2)cc(N2CCCC2)n1 [compound 508, 4-[5-[(1S)-2-amino-1-hydroxyethyl]pyrimidin-2-yl]-3-(2-methyl-6-pyrrolidin-1-ylpyrimidin-4-yl)oxybenzonitrile] | < 10 nM |
| Cc1nc(Oc2cc(C#N)ccc2-c2ccc([C@H](O)CN)cn2)cc(-c2ccccn2)n1 [compound 604, 4-[5-[(1S)-2-amino-1-hydroxyethyl]pyridin-2-yl]-3-(2-methyl-6-pyridin-2-ylpyrimidin-4-yl)oxybenzonitrile] | < 10 nM |
| Cc1nc(Oc2cc(C#N)ccc2-c2ccc(CCN)cc2)cc(-c2ccccc2O)n1 [Compound 22, 4-[4-(2-aminoethyl)phenyl]-3-[6-(2-hydroxyphenyl)-2-methylpyrimidin-4-yl]oxybenzonitrile] | 10 to 1000 nM |
| COCCN(C)c1cc(Oc2cc(C#N)ccc2-c2ncc(CCN)cn2)nc(C)n1 [compound 862, 4-[5-(2-aminoethyl)pyrimidin-2-yl]-3-[6-[2-methoxyethyl(methyl)amino]-2-methylpyrimidin-4-yl]oxybenzonitrile] | 10 to 1000 nM |
| Cn1nc(C(=O)O)cc1Oc1cc(C#N)ccc1-c1ccc(CCN)cn1 [compound 316, 5-[2-[5-(2-aminoethyl)pyridin-2-yl]-5-cyanophenoxy]-1-methylpyrazole-3-carboxylic acid] | > 1000 nM |
| Cc1nc(Oc2cc(C#N)ccc2-c2ncc(CN)cn2)cc(N2CC(F)C2)n1 [compound 793, 4-[5-(aminomethyl)pyrimidin-2-yl]-3-[6-(3-fluoroazetidin-1-yl)-2-methylpyrimidin-4-yl]oxybenzonitrile] | > 1000 nM |
| Cc1nc(N2CCOCC2)cc(N(C)c2cc(C#N)ccc2-c2ccc3c(c2)COC32CN(C)C2)n1 [Compound 5, 3-[methyl-(2-methyl-6-morpholin-4-ylpyrimidin-4-yl)amino]-4-(1′-methylspiro[3H-2-benzofuran-1,3′-azetidin]-5-yl)benzonitrile] | > 1000 nM |
